SMILES strings stand for the structures.

One series deals with gram negative organisms. The note with it: Dunn and Barradell, Drugs 1996; cited from earlier work.
The nature of series [1]: Moisture uptake of crystals on exposure to ambient atmosphere (hygroscopicity). The class given is physicochemical. The protocol: 9-Deoxo-9a-aza-9a-homoerythromycin A (73.5 g-0.1 mole) was dissolved in 250 ml acetone. To this solution, formic acid (19 ml) followed by formaldehyde (37%, 20 ml) were added and refluxed for 24 hrs. The pH of the reaction mixture was adjusted with alkali to 10.5 and filtered to remove particles. To the filtered acetone solution equal volume of water was added to precipitate azithromycin hygroscopic monohydrate as cube shaped crystals. The crystals were filtered and dried under vacuum at 50° C. to give 65 g of azithromycin monohydrate melting at 130-131° C. having a water content of 3.42% (by Karl Fischer titration method). This sample of hygroscopic monohydrate has a characteristic solid state (KBr pellet) IR spectrum (FIG. 1) and a characteristic x-ray diffraction pattern (FIG. 4).
10 gms of hygroscopic azithromycin-monohydrate was suspended in a mixture of iso-propanol (10 ml) and water (10 ml) and stirred at ambient temperature. The transformation of cubical crystals of monohydrate form to the rhomboid form crystals of dihydrate was followed by checking the crystal habit under a microscope at every two hour interval. At 16 hours the rhomboid dihydrate crystals only were seen. The slurry was filtered and dried under vacuum at 50° C. to give 9.8 g of azithromycin dihydrate. […] It has a characteristic solid state IR spectrum (KBr pellet) (FIG. 2) and x-ray diffraction pattern (FIG. 3).

Consider `CC[C@H]1OC(=O)[C@H](C)[C@@H](O[C@H]2C[C@@](C)(OC)[C@@H](O)[C@H](C)O2)[C@H](C)[C@@H](O[C@@H]2O[C@H](C)C[C@H](N(C)C)[C@H]2O)[C@@](C)(O)C[C@@H](C)CN(C)[C@H](C)[C@@H](O)[C@]1(C)O` [Azithromycin, 9-Deoxo-9a-aza-9a-methyl-9a-homo-Eryhromycin A], for which the “activity against gram negative organisms compared to Erythromycin A” value with gram negative organisms is recorded as “significant improvement in its activity”.

As for `CC[C@H]1OC(=O)[C@H](C)[C@@H](O[C@H]2C[C@@](C)(OC)[C@@H](O)[C@H](C)O2)[C@H](C)[C@@H](O[C@@H]2O[C@H](C)C[C@H](N(C)C)[C@H]2O)[C@](C)(O)C[C@@H](C)CN(C)[C@H](C)[C@@H](O)[C@]1(C)O` [azithromycin dihydrate, Azithromycin dihydrate], in series [1] (dihydrate crystals dried under vacuum at 50° C., then exposed to ambient atmosphere), the “change in moisture content on exposure to ambient atmosphere” value is on record as “no change in the moisture content”.

As to `CC[C@H]1OC(=O)[C@H](C)[C@@H](O[C@H]2C[C@@](C)(OC)[C@@H](O)[C@H](C)O2)[C@H](C)[C@@H](O[C@@H]2O[C@H](C)C[C@H](N(C)C)[C@H]2O)[C@](C)(O)C[C@@H](C)CN(C)[C@H](C)[C@@H](O)[C@]1(C)O` [azithromycin monohydrate, Azithromycin monohydrate], the “moisture content reached on exposure to ambient atmosphere” value in series [1] (exposure to ambient atmosphere, 48 hrs, water content after drying 3.42% (Karl Fischer)) came out at 5.4%.

These data come from patent publication US20020111318A1, “Process for the preparation of non-hygroscopic azithromycin dihydrate” (priority 2001, published 2002).
